From patent US20140315889A1, “HYDROXAMATE DERIVATIVES FOR HDAC INHIBITOR, AND THE PHARMACEUTICAL COMPOSITION COMPRISING THEREOF” (CHONG KUN DANG PHARMACEUTICAL CORP., priority 2011, published 2014)

What was measured:
[1] = target: T1, Human recombinant HDAC1 (Homo sapiens, UniProt Q13547); test: HDAC enzyme activity test, HDAC1; assay type: biochemical; conditions: Table 12; read-out: Inhibition ability (IC50) HDAC1
T1 construct: purchased Enzo Life Science Co. (named for the kit; assigned to the enzyme from the BML- catalogue prefix) BML-SE456
T1 sequence (Q13547 whole entry): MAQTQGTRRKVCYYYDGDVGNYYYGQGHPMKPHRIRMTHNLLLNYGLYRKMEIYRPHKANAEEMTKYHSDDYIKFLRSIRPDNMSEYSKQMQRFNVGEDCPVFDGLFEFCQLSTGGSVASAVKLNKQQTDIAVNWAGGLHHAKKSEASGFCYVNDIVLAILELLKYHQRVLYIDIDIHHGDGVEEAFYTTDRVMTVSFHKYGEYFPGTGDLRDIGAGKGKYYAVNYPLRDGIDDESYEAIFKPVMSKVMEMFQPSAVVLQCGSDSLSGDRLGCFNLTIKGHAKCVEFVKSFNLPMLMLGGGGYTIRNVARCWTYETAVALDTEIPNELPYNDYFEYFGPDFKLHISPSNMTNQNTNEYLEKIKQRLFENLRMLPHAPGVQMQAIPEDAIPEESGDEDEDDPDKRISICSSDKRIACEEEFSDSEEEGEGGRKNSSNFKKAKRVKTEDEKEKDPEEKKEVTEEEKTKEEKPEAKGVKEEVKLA
Method: (§1) Then, 0.3 μg of enzyme and 10 μM of substrate per well were added, reacted at 30° C. for 60 minutes. Thereto, Fluor de Lys® Developer II (BML-KI176) was added and reacted for 30 minutes. […] From the data, the respective IC50 were calculated by GraphPad Prism 4.0 program.

[2] = target: T2, human recombinant HDAC6 (Homo sapiens, UniProt Q9UBN7); test: HDAC enzyme activity test, HDAC6; assay type: biochemical; conditions: Table 12; for Selectivity for HDAC6, HD1/HD6: ratio HDAC1 IC50 / HDAC6 IC50; for IC50: read-out: Inhibition ability (IC50) HDAC6
T2 construct: purchased Calibiochem Co. (so in the source) 382180
T2 sequence (Q9UBN7 1-1215): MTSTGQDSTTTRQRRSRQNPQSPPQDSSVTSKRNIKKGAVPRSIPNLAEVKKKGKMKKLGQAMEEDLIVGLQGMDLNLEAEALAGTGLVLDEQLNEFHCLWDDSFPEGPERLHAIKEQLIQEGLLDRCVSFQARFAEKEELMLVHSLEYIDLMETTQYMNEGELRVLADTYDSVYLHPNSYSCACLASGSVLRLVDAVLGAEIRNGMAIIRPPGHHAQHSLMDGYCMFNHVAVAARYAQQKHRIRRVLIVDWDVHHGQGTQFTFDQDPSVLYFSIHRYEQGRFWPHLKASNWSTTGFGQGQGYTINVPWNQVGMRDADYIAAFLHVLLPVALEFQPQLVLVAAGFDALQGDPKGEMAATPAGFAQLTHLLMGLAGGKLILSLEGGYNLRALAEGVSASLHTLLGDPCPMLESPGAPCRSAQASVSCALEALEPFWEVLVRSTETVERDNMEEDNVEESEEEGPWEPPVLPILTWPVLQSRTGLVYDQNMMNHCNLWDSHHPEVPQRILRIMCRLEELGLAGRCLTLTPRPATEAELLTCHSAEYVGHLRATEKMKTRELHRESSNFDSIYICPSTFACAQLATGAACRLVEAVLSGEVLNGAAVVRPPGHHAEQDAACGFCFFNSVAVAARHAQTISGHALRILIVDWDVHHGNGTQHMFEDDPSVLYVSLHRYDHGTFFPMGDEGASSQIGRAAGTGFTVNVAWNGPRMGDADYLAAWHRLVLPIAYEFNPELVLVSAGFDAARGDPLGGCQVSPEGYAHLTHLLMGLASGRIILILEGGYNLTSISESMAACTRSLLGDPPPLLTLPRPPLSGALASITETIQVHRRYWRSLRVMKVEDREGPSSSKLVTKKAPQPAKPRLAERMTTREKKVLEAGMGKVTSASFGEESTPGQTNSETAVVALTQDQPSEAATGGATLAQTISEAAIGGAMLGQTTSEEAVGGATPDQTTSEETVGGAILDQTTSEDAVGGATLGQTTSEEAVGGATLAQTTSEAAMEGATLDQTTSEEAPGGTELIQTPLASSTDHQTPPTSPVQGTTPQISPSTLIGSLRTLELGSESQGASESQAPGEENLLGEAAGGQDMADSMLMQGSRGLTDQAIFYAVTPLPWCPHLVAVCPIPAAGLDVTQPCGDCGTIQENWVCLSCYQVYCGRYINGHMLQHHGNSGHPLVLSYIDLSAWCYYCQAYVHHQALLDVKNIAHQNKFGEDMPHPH
Method: as §1

Row | SMILES | IC50 [1] | Selectivity for HDAC6, HD1/HD6 [2] | IC50 [2]
1 | Cc1c2c(n(CCCCCCC(=O)NO)c1C)CCCC2=O [Compound 328, 7-(2,3-dimethyl-4-oxo-4,5,6,7-tetrahydro-1H-indol-1-yl)-N-hydroxyheptanamide] | 3210 nM | 145.1 | 22.1 nM
2 | Cc1c2c(n(CCCCCC(=O)NO)c1C)CCCC2=O [Compound 235, 6-(2,3-dimethyl-4-oxo-4,5,6,7-tetrahydroindol-1-yl)-N-hydroxyhexanamide] | 1310 nM | 34.9 | 37.5 nM
3 | O=C(NO)c1ccc(Cn2c3c(c4ccccc42)C(=O)C(CN2CCN(c4ccc(F)cc4)CC2)CC3)cc1 (stereo not drawn) [Compound 127, 4-((3-((4-(4-fluorophenyl)piperazin-1-yl)methyl)-4-oxo-1,2,3,4-tetrahydrocarbazol-9-yl)methyl)-N-hydroxybenzamide] | 5300 nM | 622.7 | 8.51 nM
4 | O=C(NO)c1ccc(Cn2c3c(c4ccccc42)C(=O)C(CN2CCC(F)(F)C2)CC3)cc1 (stereo not drawn) [Compound 123, 4-((3-((3,3-difluoropyrrolidin-1-yl)methyl)-4-oxo-1,2,3,4-tetrahydrocarbazol-9-yl)methyl)-N-hydroxybenzamide] | 3570 nM | 539.8 | 6.61 nM
5 | CCN1CCN(CC2CCc3c(c4ccccc4n3CCCCCC(=O)NO)C2=O)CC1 (stereo not drawn) [Compound 206, 6-(3-((4-ethylpiperazin-1-yl)methyl)-4-oxo-1,2,3,4-tetrahydrocarbazol-9-yl)-N-hydroxyhexanamide] | 1200 nM | 43.5 | 27.5 nM
6 | O=C(NO)c1ccc(Cn2c3c(c4cc(F)ccc42)C(=O)CCC3)cc1 [Compound 157, 4-((3-fluoro-5-oxo-5,6,7,8-tetrahydrocarbazol-9-yl)methyl)-N-hydroxybenzamide] | 3610 nM | 326.2 | 11.1 nM
7 | CC1(C)Cc2c(c3ccccc3n2Cc2ccc(C(=O)NO)cc2)C(=O)C1CN1CCOCC1 (stereo not drawn) [Compound 122, 4-((2,2-dimethyl-3-(morpholinomethyl)-4-oxo-1,2,3,4-tetrahydrocarbazol-9-yl)methyl)-N-hydroxybenzamide] | 6270 nM | 153 | 41 nM
8 | CC1(C)CC(=O)c2c(n(CCCCCC(=O)NO)c3c(Cl)ccc(Cl)c23)C1 [Compound 48, 6-(1,4-dichloro-7,7-dimethyl-5-oxo-5,6,7,8-tetrahydrocarbazol-9-yl)-N-hydroxyhexanamide] | 4370 nM | 30.1 | 145 nM
9 | CN1CCN(CC2CCc3c(c4ccccc4n3CCCCCC(=O)NO)C2=O)CC1 (stereo not drawn) [Compound 205, N-hydroxy-6-(3-((4-methylpiperazin-1-yl)methyl)-4-oxo-1,2,3,4-tetrahydrocarbazol-9-yl)hexanamide] | 3170 nM | 69 | 46 nM
10 | O=C(NO)c1ccc(Cn2c3c(c4cc(F)ccc42)C(=O)C(CN2CC(F)(F)C2)CC3)cc1 (stereo not drawn) [Compound 145, 4-((3-((3,3-difluoroazetidin-1-yl)methyl)-6-fluoro-4-oxo-1,2,3,4-tetrahydrocarbazol-9-yl)methyl)-N-hydroxybenzamide] | 7230 nM | 925.1 | 7.8 nM
11 | CCCCN1CCN(CC2CCc3c(c4ccccc4n3CCCCCC(=O)NO)C2=O)CC1 (stereo not drawn) [Compound 208, 6-(3-((4-butylpiperazin-1-yl)methyl)-4-oxo-1,2,3,4-tetrahydrocarbazol-9-yl)-N-hydroxyhexanamide] | 284 nM | 152.8 | 1.9 nM
12 | CC1(C)CC(=O)c2c(n(Cc3ccc(C(=O)NO)cc3)c3cccc(Br)c23)C1 [Compound 53, 4-((5-bromo-2,2-dimethyl-4-oxo-1,2,3,4-tetrahydrocarbazol-9-yl)methyl)-N-hydroxybenzamide] | 5760 nM | 88.7 | 64.9 nM
13 | CC1(C)CC(=O)c2c(n(CCCCCC(=O)NO)c3c(Br)cccc23)C1 [Compound 46, 6-(1-bromo-7,7-dimethyl-5-oxo-5,6,7,8-tetrahydrocarbazol-9-yl)-N-hydroxyhexanamide] | 2070 nM | 8.2 | 253 nM
14 | Cc1cc2c(n1CCCCCC(=O)NO)CC(C)(C)CC2=O [Compound 345, N-hydroxy-6-(2,6,6-trimethyl-4-oxo-4,5,6,7-tetrahydroindol-1-yl)hexanamide] | 402 nM | 14.3 | 28.1 nM
15 | O=C(CCCCCn1c2c(c3cc(F)ccc31)C(=O)C(CN1CCN(c3ccc(F)cc3)CC1)CC2)NO (stereo not drawn) [Compound 322, 6-(6-fluoro-3-((4-(4-fluorophenyl)piperazin-1-yl)methyl)-4-oxo-1,2,3,4-tetrahydrocarbazol-9-yl)-N-hydroxyhexanamide] | 7440 nM | 40.8 | 182 nM
16 | CCCCN1CCN(CC2CCc3c(c4cc(F)ccc4n3Cc3ccc(C(=O)NO)cc3)C2=O)CC1 (stereo not drawn) [Compound 190, 4-((3-((4-butylpiperazin-1-yl)methyl)-6-fluoro-4-oxo-1,2,3,4-tetrahydrocarbazol-9-yl)methyl)-N-hydroxybenzamide] | 2250 nM | 385.1 | 5.8 nM
17 | CC1(C)CC(=O)c2c(n(CCCCCC(=O)NO)c3ccc(F)c(F)c23)C1 [Compound 74, 6-(5,6-difluoro-2,2-dimethyl-4-oxo-1,2,3,4-tetrahydrocarbazol-9-yl)-N-hydroxyhexanamide] | 4720 nM | 33.3 | 141 nM
18 | CC1(C)CC(=O)c2c(n(CCCCCCC(=O)NO)c3ccccc23)C1 [Compound 20, 7-(2,2-dimethyl-4-oxo-1,2,3,4-tetrahydrocarbazol-9-yl)-N-hydroxyheptanamide] | 125 nM | 16.8 | 7.44 nM
19 | Cc1nccn1CC1CCc2c(c3ccccc3n2Cc2ccc(C(=O)NO)cc2)C1=O (stereo not drawn) [Compound 85, N-hydroxy-4-((3-((2-methyl-1H-imidazole-1-yl)methyl)-4-oxo-1,2,3,4-tetrahydrocarbazol-9-yl)methyl)benzamide] | 2550 nM | 225 | 11.3 nM
20 | O=C(NO)c1ccc(Cn2c3c(c4cc(F)ccc42)C(=O)NCC3)cc1 [Compound 306, 4-((8-fluoro-1-oxo-1,2,3,4-tetrahydropyrido[4,3-b]indol-5-yl)methyl)-N-hydroxybenzamide] | 3230 nM | 1041.9 | 3.1 nM
21 | O=C(NO)c1ccc(Cn2c3ccc(F)cc3c3c(=O)[nH]ccc32)cc1 [Compound 305, 4-((8-fluoro-1-oxo-1,2-dihydropyrido[4,3-b]indol-5-yl)methyl)-N-hydroxybenzamide] | 2450 nM | 980.4 | 2.5 nM
22 | CC1(C)CC(=O)c2c(n(CCCCCCC(=O)NO)c3c(Cl)cc(Cl)cc23)C1 [Compound 51, 7-(1,3-dichloro-7,7-dimethyl-5-oxo-5,6,7,8-tetrahydrocarbazol-9-yl)-N-hydroxyheptanamide] | 1330 nM | 12.5 | 106 nM
23 | CN1CCN(CCN2CCc3c(c4cc(F)ccc4n3Cc3ccc(C(=O)NO)cc3)C2=O)CC1 [Compound 287, 4-((8-fluoro-2-(2-(4-methylpiperazin-1-yl)ethyl)-1-oxo-1,2,3,4-tetrahydropyrido[4,3-b]indol-5-yl)methyl)-N-hydroxybenzamide] | 8200 nM | 715.1 | 11.5 nM
